51 compounds from PubChem BioAssay AID1996 can be followed below.

Values after ≈ are worked out from the molar mass of the structure shown.

The conditions of this data set: buffer; pH 7.4; 200.0 µM.
A word on the solubility (kinetic): it is solubility judged after dilution from a stock solution rather than from solid. On to `COc1cccc(Cn2c(=O)c3[nH]cnc3n(-c3ccccc3C)c2=O)c1`, for which the solubility (kinetic) was over 54.4 µg/mL.

`COCCNc1nc(N)c([N+](=O)[O-])c(NC2CCCCC2)n1` registered a solubility (kinetic) of 7.2 µg/mL (≈ 23.2 µM). In turn, `CN(Cc1c(O)ccc2c1oc(=O)c1ccccc12)C1CCCCC1` showed a kinetic solubility of over 50.6 µg/mL. For `O=c1cc(CN2CCOCC2)c2cc(Cl)ccc2o1`, the solubility (kinetic) is over 42 µg/mL. Compound `O=C(CN1C(=O)C(=O)N(C2CCCC2)C1=O)Nc1cc(Cl)ccc1[N+](=O)[O-]` had a solubility (kinetic) of 26.6 µg/mL (≈ 67.4 µM).

Turning to `Cc1cc(O)ccc1Nc1nc(-c2cccnc2)cs1`, the kinetic solubility stood at 1.8 µg/mL (≈ 6.35 µM). `CCOc1ccc2nc(N/C(N)=N/S(C)(=O)=O)nc(C)c2c1` showed a kinetic solubility of 2.3 µg/mL (≈ 7.11 µM). Compound `COc1ccc(NS(=O)(=O)c2ccc3oc(=O)ccc3c2)cc1` gave a kinetic solubility of over 49.7 µg/mL.

Compound `O=C1CC(c2ccccc2)CC(=O)N1c1ccccc1` had a solubility (kinetic) of 11.3 µg/mL (≈ 42.6 µM). As for `C=CCN1C(=O)c2ccccc2NC1c1cc(Br)cs1` (stereo unspecified), the kinetic solubility was determined as 41.1 µg/mL (≈ 118 µM). In the case of `CCOC(=O)Cc1nc(-c2cccc(C(F)(F)F)c2)no1`, the kinetic solubility came to 7.6 µg/mL (≈ 25.3 µM).

`COc1ccnc2c1c(=O)n(Cc1ccccc1Cl)c(=O)n2C` came in with a kinetic solubility of 36 µg/mL (≈ 109 µM).

With `COc1ccc(C(=O)Nc2ccc(C3CC3(Cl)Cl)cc2)cc1` (stereo unspecified), the kinetic solubility is under 0.7 µg/mL. For the compound `O=C(Nc1ccc(S(=O)(=O)Nc2nccs2)cc1)C(F)(F)F`, the solubility (kinetic) is over 52.7 µg/mL.

The compound `Cc1ccc2c(CN(C)Cc3cccc(Cl)c3)cc(=O)oc2c1C` displayed a kinetic solubility of under 0.7 µg/mL. `Cc1cc(C(=O)Nc2ccccc2C(=O)O)oc1C` registered a kinetic solubility of 31.3 µg/mL (≈ 121 µM). Under `CNC(=O)c1cccc(NC(=O)C(C)c2ccc3cc(OC)ccc3c2)c1` (stereo unspecified) stands 9.2 µg/mL (≈ 25.4 µM); under `Cc1cc(N2CCN(C)CC2)nc2ccccc12`, 32.9 µg/mL (≈ 136 µM).

For the compound `COc1ccc(C(=O)COc2ccccc2C#N)cc1`, the solubility (kinetic) came to 3.6 µg/mL (≈ 13.5 µM). `O=C(NC(=O)c1c(F)cccc1F)Nc1ccccc1SC(F)F` gave a solubility (kinetic) of under 0.4 µg/mL. Then `O=C(Cn1c(=O)sc2ccccc21)Nc1ccc(O)cc1`, with over 45 µg/mL; and `Cc1[nH]c(=O)[nH]c(=O)c1S(=O)(=O)Nc1cccc(C(F)(F)F)c1`, with over 52.4 µg/mL. Regarding `N#C/C(=C/Nc1ccccc1F)S(=O)(=O)c1ccc(Cl)cc1`, the solubility (kinetic) came to 2.1 µg/mL (≈ 6.24 µM). `Cc1cccc(OCCCCn2c(CO)nc3ccccc32)c1` registered a solubility (kinetic) of 31.4 µg/mL (≈ 101 µM). Take `CN1C(C(=O)Nc2ccccn2)=C(O)c2ccccc2S1(=O)=O`: the kinetic solubility was over 49.7 µg/mL. In turn, `Cc1c(C(=O)O)sc2c1c(=O)n(Cc1ccccc1)c(=O)n2C` gave a kinetic solubility of over 49.6 µg/mL.

Compound `Nc1c(Cl)cnc(C(Cl)(Cl)Cl)c1Cl` registered a kinetic solubility of 19.6 µg/mL (≈ 69.9 µM).

In turn, `CC1CCCN(C(=O)COC(=O)Cc2c(F)cccc2Cl)C1` (stereo unspecified) registered a kinetic solubility of 40.9 µg/mL (≈ 125 µM).

`CN(C)CCN(C(=O)c1ccc2ccccc2c1)c1nc2ccc(F)cc2s1.Cl`: the kinetic solubility is 30 µg/mL. On to `O=C(COC(=O)/C=C/c1cccc(Cl)c1)Nc1c(F)cccc1F`, for which the solubility (kinetic) was 6.3 µg/mL (≈ 17.9 µM).

On to `CCCc1nc2oc3c(Cl)ncnc3c2c2c1CCCC2`, for which the kinetic solubility is under 0.2 µg/mL. For `Cc1ccc(NCc2ccco2)cc1C.O=C(O)C(=O)O`, the solubility (kinetic) was 4.7 µg/mL. In turn, `Cc1c(-c2ccccc2)nc(N)c(C#N)c1-c1cccnc1` returned a kinetic solubility of 5 µg/mL (≈ 17.5 µM). Under `NCC(c1ccccc1Cl)c1c[nH]c2ccccc12` (stereo unspecified) stands over 40.6 µg/mL; under `C=CCn1c(-c2ccc(Cl)cc2)cnc1SC(C)C(=O)NC(N)=O` (stereo unspecified), 14.2 µg/mL (≈ 38.9 µM); under `Cc1noc(C)c1CSc1ccccc1C(=O)O`, over 39.5 µg/mL.

With `CCn1c(C)c(C)c2cc(C(=O)NCCc3ccco3)ccc21`, the kinetic solubility was determined as 24.4 µg/mL (≈ 78.6 µM). For `CCOc1ccc(N(C(=O)c2cc3ccccc3oc2=O)C2C=CS(=O)(=O)C2)cc1` (stereo unspecified), the solubility (kinetic) is over 63.8 µg/mL.

`Cc1ccc(NC(=O)c2cc(C)nc3ccccc23)cc1` showed a kinetic solubility of 2.1 µg/mL (≈ 7.6 µM). Under `Cc1cnc(C(=O)OCc2nc3ccccc3o2)cn1` stands over 40.4 µg/mL; under `Cc1onc(-c2ccccc2)c1-c1ccnc(N)n1`, 33.8 µg/mL (≈ 134 µM); under `O=C(/C=C/c1ccc(S(=O)(=O)N2CCOCC2)cc1)Nc1cc(F)ccc1F`, 5.5 µg/mL (≈ 13.5 µM). `COC(=O)c1ccc(S(=O)(=O)NCc2ccc(OC)cc2)n1C` gave a kinetic solubility of over 50.8 µg/mL. In the case of `CC1(C)CC(=O)C=C(Nc2ccccc2C#N)C1.Cl`, the solubility (kinetic) came out at 38.2 µg/mL. Take `CCCCC(CC)C(=O)N1CCN(C(=O)c2ccco2)CC1` (stereo unspecified): the solubility (kinetic) was 45.4 µg/mL (≈ 148 µM).

With `COc1ccc(S(=O)(=O)N2CCCCC2)cc1NS(=O)(=O)c1ccc(CNC(C)=O)cc1`, the solubility (kinetic) was 62.5 µg/mL (≈ 130 µM). As to `COc1ccc(S(=O)(=O)N(C)CC(=O)NCCN2CCOCC2)cc1`, the kinetic solubility was 51.5 µg/mL (≈ 139 µM). With `S=C(NC1CCCCC1)N1CCN(c2ncccn2)CC1`, the kinetic solubility was 9.6 µg/mL (≈ 31.4 µM).

`CCC(C(=O)OCC(=O)Nc1ccc(OC)cc1OC)c1ccccc1` (stereo unspecified) gave a kinetic solubility of 3.5 µg/mL (≈ 9.79 µM). Under `CC(C)CNC(=O)c1ccc2c(c1)C(=O)N(Cc1ccco1)C2=O` stands 25.9 µg/mL (≈ 79.4 µM). Under `COc1ccc(NC(=O)NCCCCc2ccccc2)cc1` stands 2.1 µg/mL (≈ 7.04 µM).
